# Experimental data reported in PMC11571207, “Stereorandomized Oncocins with Preserved Ribosome Binding and Antibacterial Activity” (Journal of Medicinal Chemistry, 2024).
# Non-standard residues stand in square brackets, D forms with d. Residues, ends and D or L forms follow the SMILES beside them. No end group written: not given here.
# Tests used:
# [1] = tested on: S. aureus COL (MRSA); experiment: microbe, parasite or virus in culture; settings: for MIC S. aureus, 12.5% MHB / MIC S. aureus, Full MHB: S. aureus COL (MRSA), 16–20 h at 37 °C; for MIC S. aureus, 12.5% MHB: 12.5% Müller–Hinton medium; for MIC S. aureus, Full MHB: full Müller–Hinton medium; for MIC S. aureus COL (MRSA): supplement CSV
# Description: (§1) We tested antibacterial effects against the Gram-negative bacteria Escherichia coli, Klebsiella pneumoniae, Pseudomonas aeruginosa, and Acinetobacter baumannii and the Gram-positive methicillin-resistant Staphylococcus aureus (MRSA).
# (§2) Bacterial growth assay (Figure S1), transmission electron microscopy (Figure S6), serum stability assay (Figure S7), circular dichroism spectral recording (Figures S8 and S9), antimicrobial and hemolysis activity assays (MIC and MHC), and vesicle leakage assay were carried out as described in earlier publications.[43],[44]
# (§3) Minimum inhibitory concentration assay
# (§4) Antimicrobial activity was assayed against P. aeruginosa PAO1, K. pneumoniae NCTC418, E. coli W3110, A. baumannii ATCC 19606, methicillin-resistant S. aureus COL (MRSA), and for selected peptides on P. aeruginosa PA14 and the polymyxin-B-resistant derivative PA14 2P4, as well as the clinical isolates ZEM-1A and ZEM9A, K. pneumoniae OXA-48, S. aureus Newman, Enterobacter cloacae and Burkholderia cenocepacia. The minimal inhibitory concentration (MIC) was determined by using broth microdilution method. A colo ny of bacteria was picked and grown in Luria-Bertani (LB) medium overnight at 37°C. For E. coli BW25113 sbmA::kan the medium was supplemented with 25 mg/L of kanamycin. The next day, the culture was then regrown in LB medium to log phase (OD600 = 0.6 to 0.8), which lasted approximately 4 h, and diluted to an OD600 of 0.022 in the desired medium. Stock solutions of 1 mg/mL of the samples were prepared in sterilized milliQ water and diluted to the beginning concentration of 64 μg/mL in 300 μL Mueller Hinton (MH)-medium. The diluted samples were added to first well of 96-well microtiter plate (TPP, untreated, Faust Laborbedarf, AG, Schaffhausen) and diluted serially by ½. Finally, 4 μL of the bacterial suspension was inoculated into the sample solutions (150 μL/well) with a final inoculation of about 5∙10^5 CFU/mL. The plates were then incubated at 37°C for 15-18h. For each assay, sterility (broth only) and growth control (broth with bacterial inoculum, without antibiotics) were checked with two columns in the plate. The next day, 15 μL of 3-(4,5-dimethylthiazol-2-yl)-2,5-diphenyltetrazolium bromide (MTT) was added to each well of the plate, such a way that MIC was defined as the lowest concentration of the peptide that inhibited visible growth of the tested
# [2] = tested on: K. pneumoniae NCTC 418; experiment: microbe, parasite or virus in culture; settings: for MIC K. pneumoniae, 12.5% MHB / MIC K. pneumoniae, Full MHB: K. pneumoniae NCTC 418, 16–20 h at 37 °C; for MIC K. pneumoniae, 12.5% MHB: 12.5% Müller–Hinton medium; for MIC K. pneumoniae, Full MHB: full Müller–Hinton medium; for MIC K. pneumoniae NCTC418: supplement CSV
# Description: as §1, §2, §3, §4
# [3] = tested on: P. aeruginosa PAO1; experiment: microbe, parasite or virus in culture; settings: for MIC P. aeruginosa, 12.5% MHB / MIC P. aeruginosa, Full MHB: P. aeruginosa PAO1, 16–20 h at 37 °C; for MIC P. aeruginosa, 12.5% MHB: 12.5% Müller–Hinton medium; for MIC P. aeruginosa, Full MHB: full Müller–Hinton medium; for MIC P. aeruginosa PAO1: supplement CSV
# Description: as §1, §2, §3, §4
# [4] = tested on: A. baumannii ATCC19606; experiment: microbe, parasite or virus in culture; settings: for MIC A. baumannii, 12.5% MHB / MIC A. baumannii, Full MHB: A. baumannii ATCC19606, 16–20 h at 37 °C; for MIC A. baumannii, 12.5% MHB: 12.5% Müller–Hinton medium; for MIC A. baumannii, Full MHB: full Müller–Hinton medium; for MIC A. baumannii ATCC19606: supplement CSV
# Description: as §1, §2, §3, §4
# [5] = tested on: E. coli W3110; experiment: microbe, parasite or virus in culture; settings: for MIC E. coli, 12.5% MHB / MIC E. coli, Full MHB: E. coli W3110, 16–20 h at 37 °C, broth microdilution; for MIC E. coli, 12.5% MHB: 12.5% Müller–Hinton medium; for MIC E. coli, Full MHB: full Müller–Hinton medium; for MIC E. coli W3110: supplement CSV
# Description: as §1, §2, §3, §4
# [6] = tested on: human red blood cells; experiment: Hemolysis assay, minimum hemolytic concentration; settings: for Haemolysis on hRBC, MHC: 2.5% human red blood cells (final) in 10 mM phosphate, 150 mM NaCl, pH 7.4, 25 °C, 4 h, visual inspection; for MHC human red blood cells: supplement CSV
Compound,"MIC S. aureus, 12.5% MHB [1]","MIC S. aureus, Full MHB [1]",MIC S. aureus COL (MRSA) ([1]; 12.5% MH pH 7.4) [µg/mL],MIC S. aureus COL (MRSA) ([1]; full MH pH 7.4) [µg/mL],"MIC K. pneumoniae, 12.5% MHB [2] [µg/mL]","MIC K. pneumoniae, Full MHB [2] [µg/mL]",MIC K. pneumoniae NCTC418 ([2]; 12.5% MH pH 7.4) [µg/mL],MIC K. pneumoniae NCTC418 ([2]; full MH pH 7.4) [µg/mL],"MIC P. aeruginosa, 12.5% MHB [3] [µg/mL]","MIC P. aeruginosa, Full MHB [3] [µg/mL]",MIC P. aeruginosa PAO1 ([3]; 12.5% MH pH 7.4) [µg/mL],MIC P. aeruginosa PAO1 ([3]; full MH pH 7.4) [µg/mL],"MIC A. baumannii, 12.5% MHB [4] [µg/mL]","MIC A. baumannii, Full MHB [4] [µg/mL]",MIC A. baumannii ATCC19606 ([4]; 12.5% MH pH 7.4) [µg/mL],MIC A. baumannii ATCC19606 ([4]; full MH pH 7.4) [µg/mL],"MIC E. coli, 12.5% MHB [5] [µg/mL]","MIC E. coli, Full MHB [5] [µg/mL]",MIC E. coli W3110 ([5]; 12.5% MH pH 7.4) [µg/mL],MIC E. coli W3110 ([5]; full MH pH 7.4) [µg/mL],further results
CC[C@H](C)[C@H](NC(=O)[C@H](CCCNC(=N)N)NC(=O)[C@H](CCCNC(=N)N)NC(=O)[C@@H]1CCCN1C(=O)[C@@H]1CCCN1C(=O)[C@H](CCCNC(=N)N)NC(=O)[C@@H]1CCCN1C(=O)[C@@H](CCCNC(=N)N)NC(=O)[C@@H]1CCCN1C(=O)[C@H](CC(C)C)NC(=O)[C@H](Cc1ccc(O)cc1)NC(=O)[C@@H]1CCCN1C(=O)[C@@H]1CCCN1C(=O)[C@H](CCCCN)NC(=O)[C@H](CC(=O)O)NC(=O)[C@@H](N)C(C)C)C(=O)N[C@@H](Cc1ccc(O)cc1)C(=O)N[C@@H](CC(N)=O)C(=O)N[C@@H](CCCNC(=N)N)C(N)=O [DR9-Onc] (H-VDKPPYLP[dR]PRPPRRIYNR-NH2),>64 / >64 μg/mL,>64 / >64 μg/mL,>64,>64,4,16,4,16,32,> 64,32,>64,8,> 64,8,>64,4,16,4,16,"Haemolysis on hRBC, MHC [6]: >1000 µg/mL; MHC human red blood cells [6]: >1000 µg/mL"
VDKPPYLPRPRPPRRIYNR [sr11Cterm-Onc] (VDKPPYLPRPRPPRRIYNR-NH2; also: residues 9-19 stereorandomized (1:1 L/D mixture)),>64 / 64 μg/mL,>64 / 64 μg/mL,64,>64,4,16,4,16,8,> 64,8,>64,4,32,4,32,4,16,4,16,"Haemolysis on hRBC, MHC [6]: >1000 µg/mL; MHC human red blood cells [6]: >1000 µg/mL"
CC[C@H](C)[C@H](NC(=O)[C@H](CCCNC(=N)N)NC(=O)[C@H](CCCNC(=N)N)NC(=O)[C@@H]1CCCN1C(=O)[C@@H]1CCCN1C(=O)[C@H](CCCNC(=N)N)NC(=O)[C@@H]1CCCN1C(=O)[C@H](CCCNC(=N)N)NC(=O)[C@@H]1CCCN1C(=O)[C@H](CC(C)C)NC(=O)[C@H](Cc1ccc(O)cc1)NC(=O)[C@H]1CCCN1C(=O)[C@H]1CCCN1C(=O)[C@H](CCCCN)NC(=O)[C@H](CC(=O)O)NC(=O)[C@@H](N)C(C)C)C(=O)N[C@@H](Cc1ccc(O)cc1)C(=O)N[C@@H](CC(N)=O)C(=O)N[C@@H](CCCNC(=N)N)C(N)=O [DP45-Onc] (H-VDK[dP][dP]YLPRPRPPRRIYNR-NH2),>64 / >64 μg/mL,>64 / >64 μg/mL,>64,>64,> 16,> 64,>16,>64,> 16,> 64,>16,>64,16,> 64,16,>64,8,64,8,64,"Haemolysis on hRBC, MHC [6]: >1000 µg/mL; MHC human red blood cells [6]: >1000 µg/mL"
VDKPPYLPRPRPPRRIYNR [srP45-Onc] (VDKPPYLPRPRPPRRIYNR-NH2; also: residues 4-5 (Pro-Pro) stereorandomized (1:1 L/D mixture)),>64 / 64 μg/mL,>64 / 64 μg/mL,64,>64,8,16,8,16,> 16,> 64,>16,>64,8,64,8,64,4,16,4,16,"Haemolysis on hRBC, MHC [6]: >1000 µg/mL; MHC human red blood cells [6]: >1000 µg/mL"
CC[C@@H](C)[C@@H](NC(=O)[C@@H](CCCNC(=N)N)NC(=O)[C@@H](CCCNC(=N)N)NC(=O)[C@H]1CCCN1C(=O)[C@H]1CCCN1C(=O)[C@@H](CCCNC(=N)N)NC(=O)[C@@H]1CCCN1C(=O)[C@H](CCCNC(=N)N)NC(=O)[C@@H]1CCCN1C(=O)[C@H](CC(C)C)NC(=O)[C@H](Cc1ccc(O)cc1)NC(=O)[C@@H]1CCCN1C(=O)[C@@H]1CCCN1C(=O)[C@H](CCCCN)NC(=O)[C@H](CC(=O)O)NC(=O)[C@@H](N)C(C)C)C(=O)N[C@H](Cc1ccc(O)cc1)C(=O)N[C@H](CC(N)=O)C(=O)N[C@H](CCCNC(=N)N)C(N)=O [D9Cterm-Onc] (H-VDKPPYLPRP[dR][dP][dP][dR][dR][dI][dY][dN][dR]-NH2),>64 / >64 μg/mL,>64 / >64 μg/mL,>64,>64,2,4,2,4,4,64,4,64,4,16,4,16,2,4,2,4,"Haemolysis on hRBC, MHC [6]: >1000 µg/mL; MHC human red blood cells [6]: >1000 µg/mL"
